Measured values reported in the NIST ThermoML archive (doi:10.1021/acs.jced.8b01135).

Assay: xn = mol fraction of the nth substance listed
Details: 102 kPa, Liquid; for speed of sound: Frequency=3 MHz, Single path-length method; for mass density: Vibrating tube method; for viscosity: Concentric cylinders viscometry

CCCCCCCCC1CCCCC1 [octylcyclohexane] + CCCCCCCCCCCC
Details | mass density [kg/m3] | speed of sound [m/s] | viscosity [mPa·s]
288.15 K, x1 = 0.1 | 759.33 | 1326.2 | –
288.15 K, x1 = 0.1998 | 766.24 | 1335.1 | –
288.15 K, x1 = 0.3002 | 772.95 | 1344.1 | –
288.15 K, x1 = 0.3998 | 779.63 | 1353.1 | –
288.15 K, x1 = 0.4948 | 785.9 | 1361.6 | –
288.15 K, x1 = 0.5997 | 792.69 | 1370.8 | –
288.15 K, x1 = 0.6996 | 798.98 | 1379.4 | –
288.15 K, x1 = 0.7999 | 805.34 | 1388.2 | –
288.15 K, x1 = 0.9 | 811.48 | 1396.9 | –
288.15 K, x1 = 1 | 817.58 | 1405.5 | –
293.15 K, x1 = 0.1 | 755.72 | 1306.9 | 1.61
293.15 K, x1 = 0.1998 | 762.65 | 1315.8 | 1.74
293.15 K, x1 = 0.3002 | 769.38 | 1324.8 | 1.91
293.15 K, x1 = 0.3998 | 776.08 | 1333.9 | 2.05
293.15 K, x1 = 0.4948 | 782.36 | 1342.3 | 2.23
293.15 K, x1 = 0.5997 | 789.17 | 1351.6 | 2.44
293.15 K, x1 = 0.6996 | 795.48 | 1360.3 | 2.66
293.15 K, x1 = 0.7999 | 801.86 | 1369.1 | 2.91
293.15 K, x1 = 0.9 | 808.01 | 1377.8 | 3.2
293.15 K, x1 = 1 | 814.13 | 1386.4 | 3.52
298.15 K, x1 = 0.1 | 752.11 | 1287.6 | –
298.15 K, x1 = 0.1998 | 759.06 | 1296.5 | –
298.15 K, x1 = 0.3002 | 765.81 | 1305.5 | –
298.15 K, x1 = 0.3998 | 772.53 | 1314.8 | –
298.15 K, x1 = 0.4948 | 778.83 | 1323.4 | –
298.15 K, x1 = 0.5997 | 785.65 | 1332.6 | –
298.15 K, x1 = 0.6996 | 791.98 | 1341.2 | –
298.15 K, x1 = 0.7999 | 798.37 | 1350.2 | –
298.15 K, x1 = 0.9 | 804.53 | 1358.7 | –
298.15 K, x1 = 1 | 810.67 | 1367.4 | –
303.15 K, x1 = 0.1 | 748.5 | 1268.4 | 1.36
303.15 K, x1 = 0.1998 | 755.45 | 1277.3 | 1.47
303.15 K, x1 = 0.3002 | 762.24 | 1286.4 | 1.6
303.15 K, x1 = 0.3998 | 768.97 | 1295.9 | 1.69
303.15 K, x1 = 0.4948 | 775.29 | 1304.4 | 1.82
303.15 K, x1 = 0.5997 | 782.13 | 1313.8 | 1.98
303.15 K, x1 = 0.6996 | 788.47 | 1322.2 | 2.15
303.15 K, x1 = 0.7999 | 794.88 | 1331.4 | 2.34
303.15 K, x1 = 0.9 | 801.06 | 1339.9 | 2.55
303.15 K, x1 = 1 | 807.2 | 1348.6 | 2.79
313.15 K, x1 = 0.1 | 741.26 | 1230.7 | 1.16
313.15 K, x1 = 0.1998 | 748.26 | 1239.6 | 1.24
313.15 K, x1 = 0.3002 | 755.08 | 1248.9 | 1.33
313.15 K, x1 = 0.3998 | 761.84 | 1258.6 | 1.43
313.15 K, x1 = 0.4948 | 768.19 | 1267.1 | 1.52
313.15 K, x1 = 0.5997 | 775.07 | 1276.7 | 1.64
313.15 K, x1 = 0.6996 | 781.45 | 1285.1 | 1.77
313.15 K, x1 = 0.7999 | 787.89 | 1294.4 | 1.92
313.15 K, x1 = 0.9 | 794.1 | 1302.8 | 2.08
313.15 K, x1 = 1 | 800.28 | 1311.6 | 2.26
323.15 K, x1 = 0.1 | 734 | 1193.7 | 1
323.15 K, x1 = 0.1998 | 741.03 | 1202.7 | 1.07
323.15 K, x1 = 0.3002 | 747.89 | 1212.2 | 1.14
323.15 K, x1 = 0.3998 | 754.69 | 1221.9 | 1.23
323.15 K, x1 = 0.4948 | 761.08 | 1230.5 | 1.31
323.15 K, x1 = 0.5997 | 768 | 1240.1 | 1.38
323.15 K, x1 = 0.6996 | 774.42 | 1248.7 | 1.48
323.15 K, x1 = 0.7999 | 780.88 | 1258.1 | 1.6
323.15 K, x1 = 0.9 | 787.14 | 1266.6 | 1.73
323.15 K, x1 = 1 | 793.35 | 1275.5 | 1.87
333.15 K, x1 = 0.1 | 726.7 | 1157.6 | 0.865
333.15 K, x1 = 0.1998 | 733.78 | 1166.9 | 0.923
333.15 K, x1 = 0.3002 | 740.68 | 1176.4 | 0.984
333.15 K, x1 = 0.3998 | 747.52 | 1186 | 1.06
333.15 K, x1 = 0.4948 | 753.94 | 1194.8 | 1.12
333.15 K, x1 = 0.5997 | 760.9 | 1204.5 | 1.18
333.15 K, x1 = 0.6996 | 767.37 | 1213.3 | 1.26
333.15 K, x1 = 0.7999 | 773.86 | 1222.7 | 1.36
333.15 K, x1 = 0.9 | 780.16 | 1231.5 | 1.46
333.15 K, x1 = 1 | 786.41 | 1240.3 | 1.57

CCCCCC1CCCCC1 [pentylcyclohexane] + CCCCCCCCCCCC
Details | mass density [kg/m3] | speed of sound [m/s] | viscosity [mPa·s]
288.15 K, x1 = 0.1009 | 757.14 | 1321.1 | –
288.15 K, x1 = 0.2001 | 761.98 | 1324.9 | –
288.15 K, x1 = 0.3003 | 767.03 | 1329.1 | –
288.15 K, x1 = 0.4009 | 772.26 | 1333.4 | –
288.15 K, x1 = 0.5001 | 777.64 | 1338.1 | –
288.15 K, x1 = 0.6 | 783.17 | 1343 | –
288.15 K, x1 = 0.7003 | 789 | 1348.1 | –
288.15 K, x1 = 0.8136 | 795.88 | 1354.4 | –
288.15 K, x1 = 0.9082 | 801.77 | 1359.9 | –
288.15 K, x1 = 1 | 807.78 | 1365.8 | –
293.15 K, x1 = 0.1009 | 753.52 | 1301.6 | 1.5
293.15 K, x1 = 0.2001 | 758.36 | 1305.5 | 1.51
293.15 K, x1 = 0.3003 | 763.41 | 1309.6 | 1.52
293.15 K, x1 = 0.4009 | 768.64 | 1313.9 | 1.54
293.15 K, x1 = 0.5001 | 774.02 | 1318.6 | 1.55
293.15 K, x1 = 0.6 | 779.55 | 1323.4 | 1.57
293.15 K, x1 = 0.7003 | 785.37 | 1328.5 | 1.6
293.15 K, x1 = 0.8136 | 792.25 | 1334.7 | 1.62
293.15 K, x1 = 0.9082 | 798.13 | 1340.2 | 1.66
293.15 K, x1 = 1 | 804.13 | 1346 | 1.69
298.15 K, x1 = 0.1009 | 749.9 | 1282.5 | –
298.15 K, x1 = 0.2001 | 754.73 | 1286.2 | –
298.15 K, x1 = 0.3003 | 759.79 | 1290.3 | –
298.15 K, x1 = 0.4009 | 765.01 | 1294.6 | –
298.15 K, x1 = 0.5001 | 770.39 | 1299.2 | –
298.15 K, x1 = 0.6 | 775.92 | 1304 | –
298.15 K, x1 = 0.7003 | 781.74 | 1309.1 | –
298.15 K, x1 = 0.8136 | 788.61 | 1315.2 | –
298.15 K, x1 = 0.9082 | 794.48 | 1320.6 | –
298.15 K, x1 = 1 | 800.48 | 1326.4 | –
303.15 K, x1 = 0.1009 | 746.27 | 1263.2 | 1.28
303.15 K, x1 = 0.2001 | 751.1 | 1267.1 | 1.29
303.15 K, x1 = 0.3003 | 756.16 | 1271.2 | 1.3
303.15 K, x1 = 0.4009 | 761.38 | 1275.4 | 1.31
303.15 K, x1 = 0.5001 | 766.76 | 1280 | 1.32
303.15 K, x1 = 0.6 | 772.28 | 1284.8 | 1.34
303.15 K, x1 = 0.7003 | 778.1 | 1289.8 | 1.35
303.15 K, x1 = 0.8136 | 784.97 | 1295.8 | 1.38
303.15 K, x1 = 0.9082 | 790.84 | 1301.1 | 1.4
303.15 K, x1 = 1 | 796.82 | 1306.7 | 1.43
313.15 K, x1 = 0.1009 | 738.99 | 1225.5 | 1.08
313.15 K, x1 = 0.2001 | 743.83 | 1229.3 | 1.09
313.15 K, x1 = 0.3003 | 748.88 | 1233.4 | 1.1
313.15 K, x1 = 0.4009 | 754.1 | 1237.6 | 1.11
313.15 K, x1 = 0.5001 | 759.47 | 1242.1 | 1.12
313.15 K, x1 = 0.6 | 764.99 | 1246.8 | 1.14
313.15 K, x1 = 0.7003 | 770.8 | 1251.7 | 1.15
313.15 K, x1 = 0.8136 | 777.66 | 1257.6 | 1.17
313.15 K, x1 = 0.9082 | 783.52 | 1262.8 | 1.19
313.15 K, x1 = 1 | 789.49 | 1268.2 | 1.21
323.15 K, x1 = 0.1009 | 731.68 | 1188.3 | 0.941
323.15 K, x1 = 0.2001 | 736.51 | 1192.1 | 0.949
323.15 K, x1 = 0.3003 | 741.57 | 1196.2 | 0.957
323.15 K, x1 = 0.4009 | 746.79 | 1200.3 | 0.967
323.15 K, x1 = 0.5001 | 752.16 | 1204.8 | 0.976
323.15 K, x1 = 0.6 | 757.67 | 1209.6 | 0.988
323.15 K, x1 = 0.7003 | 763.48 | 1214.3 | 1
323.15 K, x1 = 0.8136 | 770.33 | 1220.1 | 1.02
323.15 K, x1 = 0.9082 | 776.17 | 1225.1 | 1.03
323.15 K, x1 = 1 | 782.14 | 1230.5 | 1.05
333.15 K, x1 = 0.1009 | 724.33 | 1151.9 | 0.819
333.15 K, x1 = 0.2001 | 729.17 | 1155.8 | 0.825
333.15 K, x1 = 0.3003 | 734.22 | 1159.8 | 0.833
333.15 K, x1 = 0.4009 | 739.44 | 1163.9 | 0.841
333.15 K, x1 = 0.5001 | 744.8 | 1168.3 | 0.851
333.15 K, x1 = 0.6 | 750.31 | 1172.9 | 0.861
333.15 K, x1 = 0.7003 | 756.11 | 1177.6 | 0.871
333.15 K, x1 = 0.8136 | 762.96 | 1183.4 | 0.887
333.15 K, x1 = 0.9082 | 768.8 | 1188.4 | 0.897
333.15 K, x1 = 1 | 774.75 | 1193.5 | 0.914
